Assay results reported in publication doi:10.1101/2025.01.17.633618, “Systematic Determination of the Impact of Structural Edits on Peptide Accumulation into Mycobacteria” (bioRxiv, 2025).
Like-named read-outs stand apart in the source and are kept apart here. Bridge positions count the residues as written; N and C are the ends. Square brackets hold non-standard residues; d marks the D form. Peptide text beside a SMILES is read from it. * marks the point of attachment. Lys(N3) = [N-]=[N+]=NCCCC[C@H](N)C(=O)O; Azidoacetyl = [N-]=[N+]=NCC(=O)*; NMeF = CN[C@@H](Cc1ccccc1)C(=O)O; NMeL = CN[C@@H](CC(C)C)C(=O)O

Experiments:
[1] = system: Mycobacterium smegmatis strain mc2155 (Msm)
Serum stability assay = assay type: in vitro ADME; conditions: mouse serum, 37 °C, 1.0 mM peptide; time points 0, 15, 30, 60 min; RP-HPLC (C8), AUC normalized to internal standard Fmoc-L-phenylalanine
Protocol: was added to the system. The systems were prepared using the CHARMM scripts provided by CHARMM-GUI.4 The CHARMM36m force field5 was employed for the MD simulations. After energy minimization and 500 ps equilibration, a 100 ns production run was performed. All production MD simulations were performed for the NPT ensemble at 303.15 K and 1 atm using NAMD3. Long-range electrostatic interactions were treated using the particle mesh Ewald (PME) method 6 while Lennard-Jones (LJ) interactions were managed with a force-based switching function applied between 10 Å and 12 Å. […] Hydrogen bonds between different residues within the same peptide were analyzed using the last 50 ns of the simulation.
Serum stability assay. Time course degradation in mouse serum was evaluated for peptides Lin0, Cyc0, Nmet0 and Nmet9. […]
The samples were then centrifuged at 21,000×g for 5 min. […] 110 μL of the filtrate was then analyzed using Phenomenex Luna 5 µm C8(2) on RP-HPLC; gradient elution in H2O/CH3CN with 0.1% TFA at 1 mL/min. […]
Minimum inhibitory concentration (MIC) assay. […] MIC values were determined both visually and readings of OD (wells OD < 0.1) from a Biotek Synergy H1 microplate reader at 600 nm.

## CC(C)C[C@@H]1NC(=O)[C@H](CCCCN=[N+]=[N-])NC(=O)CSC[C@@H](C(=O)N[C@@H](Cc2ccccc2)C(N)=O)NC(=O)[C@H](CCCCN)NC(=O)[C@H](CO)NC1=O [Cyc0] ({CH2CO}-[Lys(N3)]LSKCF-NH2; thioether N-5)
[1]; PAC-MAN, 50 μM compound, 2 h, 37 °C, chase 50 μM Fl-az 1 h, flow cytometry, mean ± SD n = 3
  apparent accumulation across the mycomembrane in Msm: better accumulation than any other member of this macrocyclic sub-library

## CC(=O)N[C@@H](CCCCN=[N+]=[N-])C(=O)N[C@@H](CC(C)C)C(=O)N[C@@H](CO)C(=O)N[C@@H](CCCCN)C(=O)N[C@@H](CO)C(=O)N[C@@H](Cc1ccccc1)C(N)=O [Lin0] (Ac-[Lys(N3)]LSKSF-NH2)
Serum stability assay
  time to full degradation in serum: ≤ 1 h

## CC(C)C[C@H](NC(=O)[C@H](CCCCN)NC(=O)CN=[N+]=[N-])C(=O)N[C@@H](CCCCN)C(=O)N(C)[C@@H](CC(C)C)C(=O)N(C)[C@@H](Cc1ccccc1)C(N)=O [Nmet2] (Azidoacetyl-KLK[NMeL][NMeF]-NH2)
[1]
  apparent accumulation across the mycomembrane in Msm: increase was even more pronounced
